Measurements reported in US20240252677A1, “ONE-COMPONENT DELIVERY SYSTEM FOR NUCLEIC ACIDS” (The Trustees of the University of Pennsylvania, priority 2021, published 2024).

Key:
[1] = Cryo-TEM of dendrimersomes from glycerol-JDs, number of vesicle layers; type: physicochemical; settings: for Number of vesicle layers: 1 (count of vesicles): vesicles with 1 layer; for Number of vesicle layers: 2 (count of vesicles): vesicles with 2 layers; for Number of vesicle layers: 3 (count of vesicles): vesicles with 3 layers; for Number of vesicle layers: 4 (count of vesicles): vesicles with 4 layers; for Number of vesicle layers: 5 (count of vesicles): vesicles with 5 layers; for Number of vesicle layers: 6 (count of vesicles): vesicles with 6 layers; for lamellarity of DSs (in words) / calculated percentages of unilamellar DSs in the selected images: cryo-TEM; for calculated percentages of unilamellar DSs in the selected images: JD 1 mg mL-1 in water; for Number of vesicle layers: 7 (count of vesicles): vesicles with 7 layers; for Number of vesicle layers: 8 (count of vesicles): vesicles with 8 layers; for Number of vesicle layers: 9 (count of vesicles): vesicles with 9 layers; for Number of vesicle layers: 10 (count of vesicles): vesicles with 10 layers; for Number of vesicle layers: 11 (count of vesicles): vesicles with 11 layers; for Number of vesicle layers: 12 (count of vesicles): vesicles with 12 layers
From the text: The red numbers in FIG. 85 stand for the unilamellar while yellow numbers for multilamellar DSs. The calculated percentages of unilamellar DSs in the selected images for 2R, 2S and 2rac are 91%, 70% and 13%, respectively. Same trend was found for cryo-TEM of 1R, 1S and 1rac (FIG. 86 through FIG. 88). […] Achiral DSs are all unilamellar.
Cryogenic Transmission Electron Microscopy (Cryo-TEM). Morphologies of the Janus Dendrimer assemblies were characterized by cryo-TEM. Images were acquired on a Carl Zeiss Libra 120 microscope. Samples were prepared by plunge freezing of aqueous dispersion on plasma-treated lacey grids. The vitrified specimens were then transferred to a Gatan-910 cryoholder. The 5 images were recorded at −170° C. with an acceleration voltage of 120 kV. The concentration of JD in the aqueous solution of DSs was 1 mg mL-^1.

[2] = DLS size of dendrimersomes assembled from glycerol-JDs in water at different concentrations; type: physicochemical; settings: for Dh (nm): size distribution by intensity
Method: Assembly of all eight glycerol-JDs was performed by injection of their ethanol solution (50 μL) into 1 mL of Milli-Q water. The size distribution and structure of resulting DSs were analyzed by DLS (FIG. 84) and cryo-TEM. […] In a certain concentration range the size of DSs increased with the concentration of JDs injected in water or buffer. […] The dimensions of the assemblies were identical when the concentrations of the JDs in water were identical. Sizes of assemblies from mixtures of 1R and 1S in different ratios (1:3, 1:1 and 3:1), were also identical (FIG. 84). […] With the exception of the rotation of polarized light, the physical properties of enantiomers and their racemic mixtures must be identical.
Dynamic light scattering (DLS). Hydrodynamic diameters (Dh) of the self-assemblies of dendrimer molecules and their size distributions were measured on a Malvern Instruments particle sizer (Zetasizer® Nano S, Malvern Instruments, UK) equipped with 4 mW He—Ne laser (633 nm) and avalanche photodiode positioned at […] to the beam and temperature controlled cuvette holder. Experiments were performed at 25° C. in triplicate. The distribution of radius was intensity.

| SMILES | Number of vesicle layers: 1 (count of vesicles) [1] | Number of vesicle layers: 2 (count of vesicles) [1] | Number of vesicle layers: 3 (count of vesicles) [1] | Number of vesicle layers: 4 (count of vesicles) [1] | Number of vesicle layers: 5 (count of vesicles) [1] | Number of vesicle layers: 6 (count of vesicles) [1] | PDI ([2]; JD 0.025 mg·mL−1 in water) | Dh (nm) ([2]; JD 0.025 mg·mL−1 in water) | PDI ([2]; JD 0.05 mg·mL−1 in water) | Dh (nm) ([2]; JD 0.05 mg·mL−1 in water) | PDI ([2]; JD 0.1 mg·mL−1 in water) | Dh (nm) ([2]; JD 0.1 mg·mL−1 in water) | PDI ([2]; JD 0.15 mg·mL−1 in water) | Dh (nm) ([2]; JD 0.15 mg·mL−1 in water) | PDI ([2]; JD 0.2 mg·mL−1 in water) | Dh (nm) ([2]; JD 0.2 mg·mL−1 in water) | PDI ([2]; JD 0.25 mg·mL−1 in water) | Dh (nm) ([2]; JD 0.25 mg·mL−1 in water) | PDI ([2]; JD 0.3 mg·mL−1 in water) | Dh (nm) ([2]; JD 0.3 mg·mL−1 in water) | other results |
| --- | --- | --- | --- | --- | --- | --- | --- | --- | --- | --- | --- | --- | --- | --- | --- | --- | --- | --- | --- | --- | --- |
| CCCCCCCCCCCCOc1cc(OCCCCCCCCCCCC)cc(C(=O)OC[C@H](COC(=O)C(C)(COC(=O)c2cc(OCCOCCOCCOC)c(OCCOCCOCCOC)c(OCCOCCOCCOC)c2)COC(=O)c2cc(OCCOCCOCCOC)c(OCCOCCOCCOC)c(OCCOCCOCCOC)c2)OC(=O)c2cc(OCCCCCCCCCCCC)cc(OCCCCCCCCCCCC)c2)c1 [Compound 1R, (3,5)-12G1-GC-(R)-BMPA-(3,4,5)-3EO-G1] | 61 | 15 | 4 | 1 | 1 | 0 | 0.455 | 82 | 0.336 | 87 | 0.197 | 110 | 0.195 | 124 | 0.175 | 135 | 0.202 | 140 | 0.190 | 148 | PDI ([2]; JD 0.4 mg·mL−1 in water): 0.228; Dh (nm) ([2]; JD 0.4 mg·mL−1 in water): 178 nm; PDI ([2]; JD 0.5 mg·mL−1 in water): 0.326; Dh (nm) ([2]; JD 0.5 mg·mL−1 in water): 233 nm |
| CCCCCCCCCCCCOc1cc(OCCCCCCCCCCCC)cc(C(=O)OC[C@@H](COC(=O)C(C)(COC(=O)c2cc(OCCOCCOCCOC)c(OCCOCCOCCOC)c(OCCOCCOCCOC)c2)COC(=O)c2cc(OCCOCCOCCOC)c(OCCOCCOCCOC)c(OCCOCCOCCOC)c2)OC(=O)c2cc(OCCCCCCCCCCCC)cc(OCCCCCCCCCCCC)c2)c1 [Compound 1S, (3,5)-12G1-GC-(S)-BMPA-(3,4,5)-3EO-G1] | 23 | 9 | 3 | 4 | 1 | 0 | 0.446 | 80 | 0.359 | 86 | 0.223 | 100 | 0.190 | 124 | 0.195 | 135 | 0.203 | 142 | 0.186 | 147 | PDI ([2]; JD 0.4 mg·mL−1 in water): 0.258; Dh (nm) ([2]; JD 0.4 mg·mL−1 in water): 184 nm; PDI ([2]; JD 0.5 mg·mL−1 in water): 0.438; Dh (nm) ([2]; JD 0.5 mg·mL−1 in water): 229 nm |
| CCCCCCCCCCCCOc1cc(OCCCCCCCCCCCC)cc(C(=O)OCC(C)(COC(=O)c2cc(OCCCCCCCCCCCC)cc(OCCCCCCCCCCCC)c2)C(=O)OC[C@@H](COC(=O)c2cc(OCCOCCOCCOC)c(OCCOCCOCCOC)c(OCCOCCOCCOC)c2)OC(=O)c2cc(OCCOCCOCCOC)c(OCCOCCOCCOC)c(OCCOCCOCCOC)c2)c1 [Compound 2R, (3,5)-12G1-BMPA-GC-(R)-(3,4,5)-3EO-G1] | 202 | 2 | 5 | 1 | 3 | 2 | 0.416 | 107 | 0.368 | 108 | 0.258 | 111 | 0.257 | 125 | 0.242 | 134 | 0.186 | 139 | 0.227 | 152 | lamellarity of DSs (in words) [1]: unilamellar DSs predominantly; calculated percentages of unilamellar DSs in the selected images [1]: 91%; Number of vesicle layers: 7 (count of vesicles) [1]: 0; Number of vesicle layers: 8 (count of vesicles) [1]: 0; Number of vesicle layers: 9 (count of vesicles) [1]: 0; Number of vesicle layers: 10 (count of vesicles) [1]: 0; Number of vesicle layers: 11 (count of vesicles) [1]: 1; Number of vesicle layers: 12 (count of vesicles) [1]: 0; PDI ([2]; JD 0.4 mg·mL−1 in water): 0.263; Dh (nm) ([2]; JD 0.4 mg·mL−1 in water): 180 nm; PDI ([2]; JD 0.5 mg·mL−1 in water): 0.497; Dh (nm) ([2]; JD 0.5 mg·mL−1 in water): 319 nm |
| CCCCCCCCCCCCOc1cc(OCCCCCCCCCCCC)cc(C(=O)OCC(C)(COC(=O)c2cc(OCCCCCCCCCCCC)cc(OCCCCCCCCCCCC)c2)C(=O)OC[C@H](COC(=O)c2cc(OCCOCCOCCOC)c(OCCOCCOCCOC)c(OCCOCCOCCOC)c2)OC(=O)c2cc(OCCOCCOCCOC)c(OCCOCCOCCOC)c(OCCOCCOCCOC)c2)c1 [Compound 2S, (3,5)-12G1-BMPA-GC-(S)-(3,4,5)-3EO-G1] | 63 | 13 | 9 | 1 | 0 | 0 | 0.465 | 106 | 0.422 | 107 | 0.291 | 112 | 0.212 | 119 | 0.203 | 128 | 0.223 | 132 | 0.235 | 153 | lamellarity of DSs (in words) [1]: unilamellar DSs predominantly; calculated percentages of unilamellar DSs in the selected images [1]: 70%; Number of vesicle layers: 7 (count of vesicles) [1]: 1; Number of vesicle layers: 8 (count of vesicles) [1]: 1; Number of vesicle layers: 9 (count of vesicles) [1]: 0; Number of vesicle layers: 10 (count of vesicles) [1]: 3; Number of vesicle layers: 11 (count of vesicles) [1]: 1; Number of vesicle layers: 12 (count of vesicles) [1]: 0; PDI ([2]; JD 0.4 mg·mL−1 in water): 0.205; Dh (nm) ([2]; JD 0.4 mg·mL−1 in water): 165 nm; PDI ([2]; JD 0.5 mg·mL−1 in water): 0.295; Dh (nm) ([2]; JD 0.5 mg·mL−1 in water): 288 nm |
